Reference: the supplement of paper PMC3621838
± gives the standard deviation of the averaged measurements.

System: HEK293 NF-kB-luciferase reporter cells
Experiment: NF-kB luciferase reporter activity, robust Z-score vs plate median (robust Z-score (log luminescence)); higher = stronger NF-kB reporter activation
Settings: TNF treatment time 8.5 h, transfection time 72 h
Procedure: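 Primary screen of an Ambion Pre-miR miRNA mimic library (miRBase v8.0, 1.6 pmol/well, 384-well, duplicate) reverse-transfected into HEK293 cells stably expressing a 5x NF-kB firefly luciferase reporter. After 72 h the cells were treated with vehicle or TNF (40 ng/mL) for 8.5 h and luminescence was read (BriteLite). Raw luminescence was log-transformed and converted to a robust Z-score per plate: (x - plate median)/plate MAD. Sequence given is the mature miRNA strand of the double-stranded mimic.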

| Sequence | NF-kB luciferase reporter activity (TNF 0 ng/mL) | NF-kB luciferase reporter activity (TNF 40 ng/mL) |
| --- | --- | --- |
| AAACCGUUACCAUUACUGAGUUU | 1.13 ± 0.58 | 0.947 ± 0.054 |
| CUCCUGACUCCAGGUCCUGUGU | 1.44 ± 0.61 | 1.21 ± 0.14 |
| UAAUACUGCCGGGUAAUGAUGG | 0.0214 ± 0.44 | 1.06 ± 0.17 |
| AUCGUGCAUCCUUUUAGAGUGU | 4.81 ± 0.46 | 0.331 ± 0.0088 |
| UGUCUUGCAGGCCGUCAUGCA | 1.79 ± 0.31 | -0.465 ± 0.12 |
| UUUCAAGCCAGGGGGCGUUUUUC | 0.765 ± 0.45 | 0.885 ± 0.064 |
| UCCGUCUCAGUUACUUUAUAGCC | 0.757 ± 0.51 | 0.334 ± 0.055 |
| AAAGCGCUUCCCUUCAGAGUGU | 0.00327 ± 0.13 | 0.467 ± 0.04 |
| UUAUAAUACAACCUGAUAAGUG | -0.295 ± 1.1 | -0.534 ± 0.029 |
| UCUUGGAGUAGGUCAUUGGGUGG | 1.37 ± 0.57 | 0.913 ± 0.027 |
| CCCAGAUAAUGGCACUCUCAA | -0.57 ± 0.39 | -0.306 ± 0.12 |
| UUCACAGUGGCUAAGUUCCGC | 0.203 ± 0.55 | 0.955 ± 0.096 |
| UCAGGCUCAGUCCCCUCCCGAU | -0.315 ± 0.14 | -0.227 ± 0.1 |
| GUGUGUGGAAAUGCUUCUGC | 0.447 ± 0.27 | -1.04 ± 0.03 |
| AAUAUAACACAGAUGGCCUGU | 0.148 ± 0.35 | 0.874 ± 0.29 |
| UGAAACAUACACGGGAAACCUCUU | 0.49 ± 0.56 | -0.403 ± 0.11 |
| GUGAAAUGUUUAGGACCACUAG | 0.966 ± 1.4 | 0.9884 ± 0.0031 |
| UGAUUGUAGCCUUUUGGAGUAGA | -1.51 ± 0.46 | -0.927 ± 0.034 |
| AUCGGGAAUGUCGUGUCCGCC | 1.11 ± 0.67 | 0.676 ± 0.033 |

| Sequence | NF-kB luciferase reporter activity (TNF 0 ng/mL) | NF-kB luciferase reporter activity (TNF 40 ng/mL) |
| --- | --- | --- |
| CAUCUUACCGGACAGUGCUGGA | -1.28 ± 0.79 | -0.895 ± 0.12 |
| CGAAUGUUGCUCGGUGAACCCCU | -1.7 ± 0.2 | -2.17 ± 0.28 |
| UAAGGCACCCUUCUGAGUAGA | -1.29 ± 0.15 | -3.27 ± 0.24 |
| AUCACACAAAGGCAACUUUUGU | -0.634 ± 0.41 | -0.131 ± 0.049 |
| AGAGGCUGGCCGUGAUGAAUUC | 0.912 ± 0.72 | -1.96 ± 0.079 |
| CAUCCCUUGCAUGGUGGAGGGU | 0.67 ± 0.24 | 0.53 ± 0.0024 |
| CAGUGCAAUGAUGAAAGGGCAU | 1.21 ± 0.24 | 1.237 ± 0.0041 |
| ACAUAGAGGAAAUUCCACGUUU | 0.113 ± 0.85 | -0.459 ± 0.0079 |
| GCACAUUACACGGUCGACCUCU | -0.263 ± 0.11 | 1.28 ± 0.042 |
| UCUGCAAAGGGAAGCCCUUU | 0.625 ± 1.3 | 0.788 ± 0.045 |
| AAACAAACAUGGUGCACUUCUUU | -1.38 ± 0.64 | -0.235 ± 0.099 |
| UAUGUGCCUUUGGACUACAUCG | -0.472 ± 0.26 | -1.23 ± 0.037 |
| AGUGGGGAACCCUUCCAUGAGGA | -0.516 ± 0.47 | -2.85 ± 0.1 |
| CUCUAGAGGGAAGCACUUUCU | 0.466 ± 0.17 | 0.664 ± 0.074 |
| UAAUACUGUCUGGUAAAACCGU | -0.175 ± 0.95 | 0.65 ± 0.15 |
| AUCAUAGAGGAAAAUCCACGU | -0.604 ± 0.17 | -0.743 ± 0.14 |
| CCACUGCCCCAGGUGCUGCUGG | 0.831 ± 0.013 | -0.0587 ± 0.18 |
| GCUGCGCUUGGAUUUCGUCCCC | -0.0918 ± 0.13 | 0.328 ± 0.013 |
| UAGGUAGUUUCCUGUUGUUGG | -1.2 ± 0.5 | -0.972 ± 0.18 |
